From patent US20220323412A1, “EXTRACELLULAR VESICLE-FENRETINIDE COMPOSITIONS, EXTRACELLULAR VESICLE-C-KIT INHIBITOR COMPOSITIONS, METHODS OF MAKING AND USES THEREOF” (priority 2020, published 2022)

Tests used:
[1] = cited from earlier work
[2] = Retention and biodistribution of fenretinide in eye after intravitreal injection; format: in vivo, brown Norway rat; conditions: 24-hrs after intravitreal 5 μL per eye; 94.8 uM fenretinide-EV or 90.9 uM fenretinide alone
Method: Eye biodistribution of fenretinide formulated as 90.9 uM free fenretinide (excipient: 5% Ethanol, 12.5% Solutol-HS 15, 12.5% PEG 300, and 70% PBS) or 94.8 uM fenretinide-EV (in PBS) is administered to each eye of brown Norway rat (6 rats/treatment condition) by intravitreal injection (5 μL per eye). 24-hrs after administration, eyes were enucleated. Individual tissues were collected corresponding to cornea, conjunctiva, lens, vitreous humor, retina, RPE/choroid and sclera and analyzed for fenretinide content. In addition, total fenretinide content in each eye was also determined.

[3] = tested on: CD-1 IGS mice; assay: Toxicology: serum and blood chemistry, complete blood count; format: in vivo, mouse
Method: Both arms were dosed via intravenous tail-vein injected at 0.23 mg/kg with a 4 mL/kg dose volume. The EV-fenretinide formulation was stored at −80° C. until injection into mice. Blood was collected at 2, 5, 10, 15, 30, 60, 120, 240, and 960 minutes, three mice were sacrificed at each time point, and tissue was collected at 30, 120 and 960 minutes. Spleen, liver, lung, kidney, brain and heart tissues were collected. Fenretinide amount in blood and tissue was measured via LC MS/MS mass spectrometry. Serum and hematology toxicology measurements were collected from the blood samples. Blood urea nitrogen (BUN), creatinine, and alanine aminotransferase were measured from serum.
Fenretinide-EVs and fenretinide-alone formulations were produced and dosed in the animal model as in Example 6. On the terminal blood draw of each animal, 20 μL of whole blood samples were used to measure complete blood count (CBC) on the Veterinary Hematology Analyzer (Hematrue, Heska).

[4] = CellTiter-Huor Cell Viability Assay; format: cell-based; conditions: human, ARPE-19 retinal pigment epithelium cells, read-out: cell viability or growth of untreated control
Method: EV-fenretinide was packaged and purified in a manner similar to the protocol described in Example 1. The extracellular vesicles used for packaging fenretinide was isolated from HEK293-F cells. A human retinal pigment epithelium (RPE) cell line, ARPE-19 (ATCC® CRL-2302™), isolated from normal eyes of an adult […], is treated with fenretinide alone or fenretinide-EV to examine the effect on viability of retinal pigment epithelium cells. ARPE-19 cells plated the night before were treated with fenretinide (resuspended in 100% DMSO) or fenretinide-EV (in PBS) at matched concentration of drug substance (active pharmaceutical ingredient (API)) dosed at either low (0.94 μM) or high (15 μM) fenretinide concentration. After 48 hrs at 37° C. in a humidified 5% CO2 incubator, cell viability is measured using CellTiter-Huor™ Cell Viability Assay (Promega) following the manufacturer's instructions to detect viable cells based on cell membrane integrity using a fluorogenic, cell-permeant, peptide substrate (Gly-Phe-AFC) which is cleaved to a fluorescent signal following entry into intact cells. The plate was read on plate reader at 380-400 nm excitation and —505 nm emission for live-cell fluorescence readout.

[5] = tested on: MCF-7 breast cancer cells; assay: CellTiter-Glo Luminescent Cell Viability Assay; format: cell-based, human
Method: EV-fenretinide was packaged in a manner similar to the protocol described in Example 2. EV-fenretinide was dosed onto MCF-7 breast cancer cells using the exemplary protocol below. Cell viability was measured using the Promega CellTiter-Glo® Luminescent Cell Viability Assay—a method of determining the number of viable cells in culture based on quantitation of the ATP present, an indicator of metabolically active cells.
Protocol steps: • 1. MCF-7 cells were cultured in Dulbecco's Modified Eagle's Medium (DMEM) supplemented with 10% exosome-free fetal bovine serum (FBS) supplemented with penicillin-streptomycin-glutamine (PSG; 100 units/mL penicillin, 100 μg/mL streptomycin and 2 mM L-glutamine) for 1-2 passages. • 2. MCF-7 cells were harvested, washed, counted and resuspended in culture medium (DMEM supplemented with 10% exosome-free FBS and PSG) at 5E5 cells/mL. • 3. The MCF-7 cells were seeded at 5E4 cells in a volume of 100 μL/well of culture medium in a white polystyrene 96-well tissue culture plate and incubated for 18-20 hrs at 37° C./5% CO2 humidified incubator. • 4. After 18-20 hrs of incubation, medium was removed from the wells and replaced with culture medium containing test agents. […] The plate was shaken for two minutes and then left to equilibrate for 10 minutes prior to reading the luminescence on a microplate reader (iD3-Molecular Devices).

[6] = DrugBank DB05076; cited from earlier work

| SMILES | solubility in water ([1]; Selleck Chem catalog) | percentage of fenretinide remaining in eyes [2] | decrease in PLT (platelet concentration) versus Charles River general levels ([3]; 16 hrs after intravenous 0.2288 mg/kg) | adverse effects based on serum and blood chemistry results ([3]; intravenous 0.23 mg/kg) | viability at 48 h, 0.94 μM ([4]; ARPE-19, 0.94 μM fenretinide equivalent) | viability at 48 h, 15 μM ([4]; ARPE-19, 15 μM fenretinide equivalent) | viability at 40 µM ([5]; Homo sapiens, MCF7, MCF-7, 40 μM fenretinide, 48 hours) | effect on cell viability over concentration ([5]; MCF-7, 0.625-40 μM, most notable after about 10 μM) | logP [6] | solubility limit in water ([1]; water) |
| --- | --- | --- | --- | --- | --- | --- | --- | --- | --- | --- |
| Cc1nc(Nc2ncc(C(=O)Nc3c(C)cccc3Cl)s2)cc(N2CCN(CCO)CC2)n1 [dasatinib] | insoluble in water |  |  |  |  |  |  |  |  |  |
| CC1=C(/C=C/C(C)=C/C=C/C(C)=C/C(=O)Nc2ccc(O)cc2)C(C)(C)CCC1 [Fenretinide, N[4-hydroxyphenyl]retinamide] |  | 7% | 5 fold | did not exert apparent adverse effects | 85.5% | 31% | ~20% | dose-dependent cell viability inhibition | greater than 6 | about 1.71 μg/mL |
